Consider 18 compounds from ChEMBL document CHEMBL1146970, “Potent blockers of the monocarboxylate transporter MCT1: novel immunomodulatory compounds” (Bioorg Med Chem Lett, 2006).

Values after ≈ are worked out from the molar mass of the structure shown. Some results are limits rather than exact numbers.

Test in the first series: not given
The conditions noted are these: buffer.
The term solubility denotes the concentration that dissolves in the medium under given conditions. The low end stands for little dissolved substance, the high end for much dissolved substance. Turning to `CC(C)Cn1c(=O)n(C)c(=O)c2c(SCCCO)n(Cc3cccc4ccccc34)cc21`, the solubility is 80 µg/mL (≈ 177 µM).

Another series can be described thus: physchem. Particulars: aqueous.
`CC(C)Cn1c(=O)n(C)c(=O)c2c(C(=O)N3CC[C@@H](O)C3)c(Cc3ccnc4ccccc34)sc21` returned a solubility of 520 µg/mL (≈ 1060 µM).

`CC(C)Cc1nn(C)c(=O)c2c(SCCCO)n(Cc3cccc4ccccc34)cc12` showed a solubility of under 1 µg/mL.

Another series in a line: physchem. Particulars: octanol/water.
Usually logD stands for lipophilicity at a set pH, counting ionised and neutral species. A high value points to a more lipophilic compound. `CC(C)Cn1c(=O)n(C)c(=O)c2c(C(=O)N3CC[C@@H](O)C3)c(Cc3cccc4ncccc34)sc21` returned a logD of 2. Same read-out and setting: then `CC(C)Cn1c(=O)n(C)c(=O)c2c(SCCCO)c(Cc3ccccc3C(F)(F)F)sc21`, with 4.1; and `CC(C)Cn1c(=O)n(C)c(=O)c2c(C(=O)N3CC[C@@H](O)C3)c(Cc3c[nH]c4ncccc34)sc21`, with 1.7; and `Cc1nc(Cl)c(Cl)n1Cc1sc2c(c1C(=O)N1CC[C@@H](O)C1)c(=O)n(C)c(=O)n2CC(C)C`, with 1.6.

In turn, `CC(C)Cn1c(=O)n(C)c(=O)c2c(SC3CCC3)c(Cc3ccccc3C(F)(F)F)sc21` showed a logD of over 3.5. The same measure, in the same setting: under `CC(C)Cn1c(=O)n(C)c(=O)c2c(C(=O)N3CC[C@@H](O)C3)c(Cc3ccnc4ccccc34)sc21` stands 1.7; under `CC(C)Cn1c(=O)n(C)c(=O)c2c(C(=O)N3CC[C@@H](O)C3)c(Cc3c[nH]c4ccccc34)sc21`, 2.4; under `CC(C)Cn1c(=O)n(C)c(=O)c2c(C(=O)N3CC[C@@H](O)C3)c(Cc3cncc4ccccc34)sc21`, 1.7.

The compound `CC(C)Cn1c(=O)n(C)c(=O)c2c(C(=O)N3CC[C@@H](O)C3)c(Cc3ccccc3C(F)(F)F)sc21` showed a logD of 2.7.

Consider `CC(C)Cc1nn(C)c(=O)c2c(SCCCO)n(Cc3cccc4ccccc34)cc12`, for which the logD turned out to be 4.8. The same measure, in the same setting: under `CC(C)Cn1c(=O)n(C)c(=O)c2c(C(=O)N3CCCC3)c(Cc3ccccc3C(F)(F)F)sc21` stands 3.8; under `CNc1nc2ccccc2n1Cc1sc2c(c1C(=O)N1CC[C@@H](O)C1)c(=O)n(C)c(=O)n2CC(C)C`, 1.6; under `CC(C)Cn1c(=O)n(C)c(=O)c2c(C(=O)N3CC(C)(O)C3)c(Cc3ccccc3C(F)(F)F)sc21`, 3.2. Consider `CC(C)Cn1c(=O)n(C)c(=O)c2c(SCCCO)n(Cc3cccc4ccccc34)cc21`, for which the logD came out at 4.4. Regarding `CC(C)Cn1c(=O)n(C)c(=O)c2c(S[C@@H]3CCC[C@H]3O)c(Cc3ccccc3C(F)(F)F)sc21` (racemic), the logD turned out to be 4.2.

In the case of `CC(C)Cn1c(=O)n(C)c(=O)c2c(SCC(O)CO)c(Cc3ccccc3C(F)(F)F)sc21` (racemic), the logD was over 4.5. The compound `CC(C)Cn1c(=O)n(C)c(=O)c2c(S[C@@H]3CC[C@H](O)C3)c(Cc3ccccc3C(F)(F)F)sc21` (racemic) gave a logD of 4.4. Still for that read-out and setting: under `CC(C)Cn1c(=O)n(C)c(=O)c2c(S(=O)(=O)N3CC[C@@H](O)C3)c(Cc3ccccc3C(F)(F)F)sc21` (racemic) stands 3.3.
